Test results: patent US20230029066A1, “CRYSTAL FORMS OF FUSED RING COMPOUND, AND COMPOSITION THEREOF, PREPARATION METHOD THEREFOR AND APPLICATION THEREOF” (HANGZHOU YUSHENG MEDICAL TECHNOLOGY CO. LTD, priority 2019, published 2023)
Converted amounts (≈) assume the structure as drawn. “Also recorded” adds a separate entry of the source. Read-outs that look alike come from different tables or passages of the source.

Columns and labels:
Type in all cases: physicochemical
[1] = Effect of crystal form on stability, high humidity test for 5 days (XRD); details: room temperature, unsealed, desiccator with saturated potassium nitrate
Experimental: Evaluation on effect of crystal form on stability—high humidity test for 5 days
(§1) The amorphous form obtained in Example 11, crystal form IV obtained in Example 3, crystal form I obtained in Example 6, and crystal form II obtained in Example 8 were each taken 30 mg, in triplicate, put into a penicillin bottle, which is transferred, without being sealed, at room temperature into a desiccator with saturated potassium nitrate at the bottom, and the samples were taken after 5 days and tested by XRD.

[2] = Effect of crystal form on stability, high temperature test for 5 days (XRD); details: 60° C., unsealed
Experimental: Evaluation on effect of crystal form on stability—high temperature test for 5 days
as §1, with “to QG 2003 ba incubation and drying oven, of which the” for “at room”, “was adjusted to 60° C. The” for “into a desiccator with saturated potassium nitrate at the bottom, and the”

[3] = Solubility of crystal forms in different environments
Source text: The solubilities (μg/mL) of crystal form I in different environments are shown in […]

[4] = Stability in solution within 24 hours
[5] = Accelerated stability test for 30 days (XRD); details: 40° C., sealed bags
Experimental: Evaluation for accelerated stability of crystal forms I, II and IV
Crystal form IV obtained in Example 3, crystal form I obtained in Example 6, and crystal form II obtained in Example 8 were each taken 30 mg, in triplicate, put into sealed bags, which is transferred into BPN-80CH CO2 incubator, of which the temperature was set at 40° C. The samples were taken after 30 days and tested by XRD.

[6] = Simulated fasting intestinal fluid (FaSSIF), R.T. (25° C.)
[7] = Simulated gastric fluid (SGF), 37° C.
[8] = Simulated gastric fluid (SGF), R.T. (25° C.)
[9] = Simulated gastric fluid (SGF), Ultrasonic
[10] = Simulated postprandial intestinal fluid (FeSSIF), 37° C.
[11] = Simulated postprandial intestinal fluid (FeSSIF), R.T. (25° C.)
[12] = Simulated postprandial intestinal fluid (FeSSIF), Ultrasonic
[13] = pH 1.2 hydrochloric acid solution, 37° C.
[14] = pH 1.2 hydrochloric acid solution, R.T. (25° C.)
[15] = pH 1.2 hydrochloric acid solution, Ultrasonic
[16] = pH 4.5 acetic acid-sodium acetate solution, 75° C.
[17] = pH 4.5 acetic acid-sodium acetate solution, R.T. (25° C.)
[18] = Simulated fasting intestinal fluid (FaSSIF)
[19] = Simulated postprandial intestinal fluid (FeSSIF)
[20] = pH 1.2 hydrochloric acid solution
[21] = pH 4.5 acetic acid-sodium acetate solution

| solid-form stability, change of XRD after high humidity test [1] | solid-form stability, change of XRD after high temperature test [2] | solubility [3, 6] [µg/mL] | solubility [3, 7] [µg/mL] | solubility [3, 8] [µg/mL] | solubility [3, 9] [µg/mL] | solubility [3, 10] [µg/mL] | solubility [3, 11] [µg/mL] | solubility [3, 12] [µg/mL] | solubility [3, 13] [µg/mL] | solubility [3, 14] [µg/mL] | solubility [3, 15] [µg/mL] | solubility [3, 16] [µg/mL] | solubility [3, 17] [µg/mL] | Stability [4, 18] | Stability ([4]; Simulated gastric fluid (SGF)) | Stability [4, 19] | Stability ([4]; Water) | Stability [4, 20] | solid-form stability, change of XRD after accelerated stability test [5] | Compound | other results |
| --- | --- | --- | --- | --- | --- | --- | --- | --- | --- | --- | --- | --- | --- | --- | --- | --- | --- | --- | --- | --- | --- |
| barely no change | barely no change | 2.07 (≈ 4.56 µM) | 167.38 (≈ 369 µM) | 99.81 (≈ 220 µM) | 119.65 (≈ 264 µM) | 11.35 (≈ 25 µM) | 8.09 (≈ 17.8 µM) | 9.46 (≈ 20.9 µM) | 404.30 (≈ 891 µM) | 275.20 (≈ 607 µM) | 294.60 (≈ 650 µM) | 1.55 (≈ 3.42 µM) | 1.29 (≈ 2.84 µM) | Stable within | Stable within | Stable within | Stable within | Stable within | barely no change; also recorded: stable | COc1ncc(-c2ccc3ncc(C#N)c(N4CCOC[C@H]4C)c3c2)cc1NS(C)(=O)=O [crystal form I, (R)-N-(5-(3-cyano-4-(3-methylmorpholinyl)quinolin-6-yl)-2-methoxypyridin-3-yl)methanesulfonamide] | solubility ([3]; pH 1.2 hydrochloric acid solution, 75 °C, pH 1.2, simulated gastric fluid, thermodynamic from solid, pH 1.2 hydrochloric acid solution, 75° C., read-out: solubility): 868 µg/mL (≈ 1910 µM); solubility ([3]; pH 4.5 acetic acid-sodium acetate solution, 37 °C, pH 4.5, aqueous buffer, thermodynamic from solid, pH 4.5 acetic acid-sodium acetate solution, 37° C., read-out: solubility): 1.67 µg/mL (≈ 3.68 µM); solubility ([3]; pH 4.5 acetic acid-sodium acetate solution, pH 4.5, aqueous buffer, thermodynamic from solid, pH 4.5 acetic acid-sodium acetate solution, Ultrasonic, read-out: solubility): 1.56 µg/mL (≈ 3.44 µM); solubility ([3]; pH 6.8 PBS solution, 25 °C, pH 6.8, aqueous buffer, thermodynamic from solid, pH 6.8 PBS solution, R.T. (25° C.), read-out: solubility): 3.58 µg/mL (≈ 7.89 µM); solubility ([3]; pH 6.8 PBS solution, 37 °C, pH 6.8, aqueous buffer, thermodynamic from solid, pH 6.8 PBS solution, 37° C., read-out: solubility): 1.51 µg/mL (≈ 3.33 µM); solubility ([3]; pH 6.8 PBS solution, 75 °C, pH 6.8, aqueous buffer, thermodynamic from solid, pH 6.8 PBS solution, 75° C., read-out: solubility): 1.41 µg/mL (≈ 3.11 µM); solubility ([3]; pH 6.8 PBS solution, pH 6.8, aqueous buffer, thermodynamic from solid, pH 6.8 PBS solution, Ultrasonic, read-out: solubility): 2.79 µg/mL (≈ 6.15 µM); solubility ([3]; simulated fasting intestinal fluid (FaSSIF), 37 °C, fassif, thermodynamic from solid, Simulated fasting intestinal fluid (FaSSIF), 37° C., read-out: solubility): 2.87 µg/mL (≈ 6.33 µM); solubility ([3]; simulated fasting intestinal fluid (FaSSIF), 75 °C, fassif, thermodynamic from solid, Simulated fasting intestinal fluid (FaSSIF), 75° C., read-out: solubility): 8.64 µg/mL (≈ 19.1 µM); solubility ([3]; simulated fasting intestinal fluid (FaSSIF), fassif, thermodynamic from solid, Simulated fasting intestinal fluid (FaSSIF), Ultrasonic, read-out: solubility): 4.76 µg/mL (≈ 10.5 µM); solubility ([3]; simulated gastric fluid (SGF), 75 °C, simulated gastric fluid, thermodynamic from solid, Simulated gastric fluid (SGF), 75° C., read-out: solubility): 432 µg/mL (≈ 952 µM); solubility ([3]; simulated postprandial intestinal fluid (FeSSIF), 75 °C, fessif, thermodynamic from solid, Simulated postprandial intestinal fluid (FeSSIF), 75° C., read-out: solubility): 18.9 µg/mL (≈ 41.7 µM); solubility ([3]; water, 25 °C, water, thermodynamic from solid, Water, R.T. (25° C.), read-out: solubility): 3.84 µg/mL (≈ 8.47 µM); solubility ([3]; water, 37 °C, water, thermodynamic from solid, Water, 37° C., read-out: solubility): 3.87 µg/mL (≈ 8.53 µM); solubility ([3]; water, 75 °C, water, thermodynamic from solid, Water, 75° C., read-out: solubility): 2.24 µg/mL (≈ 4.94 µM); solubility ([3]; water, thermodynamic from solid, Water, Ultrasonic, read-out: solubility): 4.63 µg/mL (≈ 10.2 µM); Stability [4, 21]: Stable within; Stability ([4]; pH 6.8 PBS solution): Stable within; solid-form stability, change of XRD after high humidity test ([1]; listed as Crystal form I): stable; solid-form stability, change of XRD after high temperature test ([2]; listed as Crystal form I): stable |
| barely no change; also recorded: stable | barely no change; also recorded: stable |  |  |  |  |  |  |  |  |  |  |  |  |  |  |  |  |  | barely no change; also recorded: stable | COc1ncc(-c2ccc3ncc(C#N)c(N4CCOC[C@H]4C)c3c2)cc1NS(C)(=O)=O [crystal form II, (R)-N-(5-(3-cyano-4-(3-methylmorpholinyl)quinolin-6-yl)-2-methoxypyridin-3-yl)methanesulfonamide] |  |
| barely no change; also recorded: stable | barely no change; also recorded: stable | 6.05 (≈ 13.3 µM) | 655.37 (≈ 1450 µM) | 533.36 (≈ 1180 µM) | 570.49 (≈ 1260 µM) | 26.02 (≈ 57.4 µM) | 31.70 (≈ 69.9 µM) | 29.70 (≈ 65.5 µM) | 1431.40 (≈ 3160 µM) | 1283.50 (≈ 2830 µM) | 1289.40 (≈ 2840 µM) | 3.45 (≈ 7.61 µM) | 2.75 (≈ 6.06 µM) | Stable within | Stable within | Stable within | Stable within | Stable within | barely no change; also recorded: stable | COc1ncc(-c2ccc3ncc(C#N)c(N4CCOC[C@H]4C)c3c2)cc1NS(C)(=O)=O [crystal form IV, (R)-N-(5-(3-cyano-4-(3-methylmorpholinyl)quinolin-6-yl)-2-methoxypyridin-3-yl)methanesulfonamide] | solubility ([3]; Simulated fasting intestinal fluid (FaSSIF), 37° C.): 4.70 µg/mL (≈ 10.4 µM); solubility ([3]; Simulated fasting intestinal fluid (FaSSIF), 75° C.): 5.12 µg/mL (≈ 11.3 µM); solubility ([3]; Simulated fasting intestinal fluid (FaSSIF), Ultrasonic): 5.43 µg/mL (≈ 12 µM); solubility ([3]; Simulated gastric fluid (SGF), 75° C.): 766.58 µg/mL (≈ 1690 µM); solubility ([3]; Simulated postprandial intestinal fluid (FeSSIF), 75° C.): 28.48 µg/mL (≈ 62.8 µM); solubility ([3]; Water, 37° C.): 2.39 µg/mL (≈ 5.27 µM); solubility ([3]; Water, 75° C.): 2.98 µg/mL (≈ 6.57 µM); solubility ([3]; Water, R.T. (25° C.)): 2.68 µg/mL (≈ 5.91 µM); solubility ([3]; Water, Ultrasonic): 2.96 µg/mL (≈ 6.53 µM); solubility ([3]; pH 1.2 hydrochloric acid solution, 75° C.): 1516.50 µg/mL (≈ 3340 µM); solubility ([3]; pH 4.5 acetic acid-sodium acetate solution, 37° C.): 3.04 µg/mL (≈ 6.7 µM); solubility ([3]; pH 4.5 acetic acid-sodium acetate solution, Ultrasonic): 3.04 µg/mL (≈ 6.7 µM); solubility ([3]; pH 6.8 PBS solution, 37° C.): 2.18 µg/mL (≈ 4.81 µM); solubility ([3]; pH 6.8 PBS solution, 75° C.): 2.62 µg/mL (≈ 5.78 µM); solubility ([3]; pH 6.8 PBS solution, R.T. (25° C.)): 2.12 µg/mL (≈ 4.67 µM); solubility ([3]; pH 6.8 PBS solution, Ultrasonic): 2.48 µg/mL (≈ 5.47 µM); Stability [4, 21]: Stable within; Stability ([4]; pH 6.8 PBS solution): Stable within |

| Compound | solid-form stability, change of XRD after high humidity test [1] | solid-form stability, change of XRD after high temperature test [2] | solubility [3, 6] [µg/mL] | solubility [3, 7] [µg/mL] | solubility [3, 8] [µg/mL] | solubility [3, 9] [µg/mL] | solubility [3, 10] [µg/mL] | solubility [3, 11] [µg/mL] | solubility [3, 12] [µg/mL] | solubility [3, 13] [µg/mL] | solubility [3, 14] [µg/mL] | solubility [3, 15] [µg/mL] | solubility [3, 16] [µg/mL] | solubility [3, 17] [µg/mL] | Stability [4, 18] | Stability ([4]; Simulated gastric fluid (SGF)) | Stability [4, 19] | Stability ([4]; Water) | Stability [4, 20] | solid-form stability, change of XRD after accelerated stability test [5] | other results |
| --- | --- | --- | --- | --- | --- | --- | --- | --- | --- | --- | --- | --- | --- | --- | --- | --- | --- | --- | --- | --- | --- |
| COc1ncc(-c2ccc3ncc(C#N)c(N4CCOC[C@H]4C)c3c2)cc1NS(C)(=O)=O [amorphous form, (R)-N-(5-(3-cyano-4-(3-methylmorpholinyl)quinolin-6-yl)-2-methoxypyridin-3-yl)methanesulfonamide, reference compound] | obvious crystal transformation; also recorded: significant crystal transformation | obvious crystal transformation; also recorded: significant crystal transformation |  |  |  |  |  |  |  |  |  |  |  |  |  |  |  |  |  |  |  |
